Among the data in US10189816B2, “Substituted pyridines as inhibitors of human immunodeficiency virus replication” (priority 2015, dated 2019) are EC50 values, retold here.

SMILES strings stand for the structures. Read-outs that look alike come from different tables or passages of the source. Where only a bound is given, the exact number is not on record here.

This assay deals with NL-RLuc virus. Nature of the assay: Inhibition of HIV replication (NL-RLuc reporter virus in MT-2 cells, luciferase readout). It is filed as cell-based. From the text:
Inhibition of HIV replication: A recombinant NL-RLuc proviral clone was constructed in which a section of the nef gene from NL4-3 was replaced with the Renilla Luciferase gene. This virus is fully infectious and can undergo multiple cycles of replication in cell culture. In addition, the luciferous reporter provides a simple and easy method for quantitating the extent of virus growth and consequently, the antiviral activity of test compounds. The plasmid pNLRLuc contains the proviral NL-Rluc DNA cloned into pUC18 at the PvuII site. The NL-RLuc virus was prepared by transfection of 293T cells with the plasmid pNLRLuc. Transfections were performed using the LipofectAMINE PLUS kit from Invitrogen (Carlsbad, Calif.) according to the manufacturer and the virus generated was titered in MT-2 cells. For susceptibility analyses, the titrated virus was used to infect MT-2 cells in the presence of compound, and after 5 days of incubation, cells were processed and quantitated for virus growth by the amount of expressed luciferase. Assay media was RPMI 1640 supplemented with 10% heat inactivated fetal bovine serum (FBS), 100 units/ml penicillin G/100 units/ml streptomycin, 10 mM HEPES buffer pH 7.55 and 2 mM L-glutamine. The results from at least 2 experiments were used to calculate the EC50 values. Luciferase was quantitated using the Dual Luciferase kit from Promega (Madison, Wis.). Susceptibility of viruses to compounds was determined by incubation in the presence of serial dilutions of the compound. The 50% effective concentration (EC50) was calculated by using the exponential form of the median effect equation where (Fa)=1/[1+(ED50/drug conc.)^m] (Johnson V A, Byington R T. Infectivity Assay. In Techniques in HIV Research. ed. Aldovini A, Walker B D. 71-76. New York: Stockton Press.1990). Activity equal to A refers to a compound having an EC50≤100 nM, while B and C denote compounds having an EC50 between 100 nM and 1 uM (B) or >1 uM (C).

Setting [1] is: Human immunodeficiency virus 1, MT2, 120 h, read-out: Activity.
The mark [2] stands for this setting: Human immunodeficiency virus 1, MT2, 120 h, read-out: EC50 μM.

Take `Cc1nc(C)c([C@H](OC(C)(C)C)C(=O)O)c(N2CCC(C)(C)CC2)c1-c1ccc2c(c1)CCN(Cc1cc(Cl)ccc1F)C2` [Compound 42, (S)-2-(tert-butoxy)-2-(5-(2-(5-chloro-2-fluorobenzyl)-1,2,3,4-tetrahydroisoquinolin-6-yl)-4-(4,4-dimethylpiperidin-1-yl)-2,6-dimethylpyridin-3-yl)acetic acid]: the EC50 under setting [1] was < 0.1 µM.
Same read-out and setting: next, `Cc1nc(C)c([C@H](OC(C)(C)C)C(=O)O)c(N2CCC(C)(C)CC2)c1-c1ccc2c(c1)CCN(Cc1cc(F)cc(Cl)c1)C2` [Compound 43, (S)-2-(tert-butoxy)-2-(5-(2-(3-chloro-5-fluorobenzyl)-1,2,3,4-tetrahydroisoquinolin-6-yl)-4-(4,4-dimethylpiperidin-1-yl)-2,6-dimethylpyridin-3-yl)acetic acid]: < 0.1 µM; `Cc1nc(C)c([C@H](OC(C)(C)C)C(=O)O)c(N2CCC(C)(C)CC2)c1-c1ccc2c(c1)CCN(Cc1c(F)ccc(F)c1F)C2` [Compound 44, (S)-2-(tert-butoxy)-2-(4-(4,4-dimethylpiperidin-1-yl)-2,6-dimethyl-5-(2-(2,3,6-trifluorobenzyl)-1,2,3,4-tetrahydroisoquinolin-6-yl)pyridin-3-yl)acetic acid]: < 0.1 µM.
On to `Cc1nc(C)c([C@H](OC(C)(C)C)C(=O)O)c(N2CCC(C)(C)CC2)c1-c1ccc2c(c1)CCN(Cc1cc(F)ccc1Cl)C2` [Compound 45, (S)-2-(tert-butoxy)-2-(5-(2-(2-chloro-5-fluorobenzyl)-1,2,3,4-tetrahydroisoquinolin-6-yl)-4-(4,4-dimethylpiperidin-1-yl)-2,6-dimethylpyridin-3-yl)acetic acid], for which the EC50 is, setting by setting: under setting [1], < 0.1 µM; under setting [2], 0.003 µM.
On to `Cc1cc(F)cc(CN2CCc3cc(-c4c(C)nc(C)c([C@H](OC(C)(C)C)C(=O)O)c4N4CCC(C)(C)CC4)ccc3C2)c1` [Compound 46, (S)-2-(tert-butoxy)-2-(4-(4,4-dimethylpiperidin-1-yl)-5-(2-(3-fluoro-5-methylbenzyl)-1,2,3,4-tetrahydroisoquinolin-6-yl)-2,6-dimethylpyridin-3-yl)acetic acid], for which the EC50 under setting [1] is < 0.1 µM.
Take `Cc1ccc(F)cc1CN1CCc2cc(-c3c(C)nc(C)c([C@H](OC(C)(C)C)C(=O)O)c3N3CCC(C)(C)CC3)ccc2C1` [Compound 47, (S)-2-(tert-butoxy)-2-(4-(4,4-dimethylpiperidin-1-yl)-5-(2-(5-fluoro-2-methylbenzyl)-1,2,3,4-tetrahydroisoquinolin-6-yl)-2,6-dimethylpyridin-3-yl)acetic acid]: the EC50 under setting [1] was < 0.1 µM.
On the same count and under the same terms, next, `Cc1ccc(F)c(CN2CCc3cc(-c4c(C)nc(C)c([C@H](OC(C)(C)C)C(=O)O)c4N4CCC(C)(C)CC4)ccc3C2)c1F` [Compound 48, (S)-2-(tert-butoxy)-2-(5-(2-(2,6-difluoro-3-methylbenzyl)-1,2,3,4-tetrahydroisoquinolin-6-yl)-4-(4,4-dimethylpiperidin-1-yl)-2,6-dimethylpyridin-3-yl)acetic acid]: < 0.1 µM; `Cc1nc(C)c([C@H](OC(C)(C)C)C(=O)O)c(N2CCC(C)(C)CC2)c1-c1ccc2c(c1)CCN(Cc1cc(F)c(F)cc1F)C2` [Compound 49, (S)-2-(tert-butoxy)-2-(4-(4,4-dimethylpiperidin-1-yl)-2,6-dimethyl-5-(2-(2,4,5-trifluorobenzyl)-1,2,3,4-tetrahydroisoquinolin-6-yl)pyridin-3-yl)acetic acid]: < 0.1 µM.
For the compound `Cc1nc(C)c([C@H](OC(C)(C)C)C(=O)O)c(N2CCC(C)(C)CC2)c1-c1ccc2c(c1)CCN(Cc1c(F)cccc1F)C2` [Compound 50, (S)-2-(tert-butoxy)-2-(5-(2-(2,6-difluorobenzyl)-1,2,3,4-tetrahydroisoquinolin-6-yl)-4-(4,4-dimethylpiperidin-1-yl)-2,6-dimethylpyridin-3-yl)acetic acid], the EC50 under setting [1] is < 0.1 µM.
In the case of `Cc1cccc(F)c1CN1CCc2cc(-c3c(C)nc(C)c([C@H](OC(C)(C)C)C(=O)O)c3N3CCC(C)(C)CC3)ccc2C1` [Compound 51, (S)-2-(tert-butoxy)-2-(4-(4,4-dimethylpiperidin-1-yl)-5-(2-(2-fluoro-6-methylbenzyl)-1,2,3,4-tetrahydroisoquinolin-6-yl)-2,6-dimethylpyridin-3-yl)acetic acid], the EC50 reads like this: under setting [1], < 0.1 µM; under setting [2], 0.003 µM.
On to `Cc1ccc(C(F)(F)F)cc1CN1CCc2cc(-c3c(C)nc(C)c([C@H](OC(C)(C)C)C(=O)O)c3N3CCC(C)(C)CC3)ccc2C1` [Compound 52, (S)-2-(tert-butoxy)-2-(4-(4,4-dimethylpiperidin-1-yl)-2,6-dimethyl-5-(2-(2-methyl-5-(trifluoromethyl)benzyl)-1,2,3,4-tetrahydroisoquinolin-6-yl)pyridin-3-yl)acetic acid], for which the EC50 (NL-RLuc virus in MT-2 cells, 5 days of incubation, luciferase, at least 2 experiments, read-out: Activity) is < 0.1 µM.
For `Cc1nc(C)c([C@H](OC(C)(C)C)C(=O)O)c(N2CCC(C)(C)CC2)c1-c1ccc2c(c1)CCN(Cc1ccc(Cl)cc1Cl)C2` [Compound 53, (S)-2-(tert-butoxy)-2-(5-(2-(2,4-dichlorobenzyl)-1,2,3,4-tetrahydroisoquinolin-6-yl)-4-(4,4-dimethylpiperidin-1-yl)-2,6-dimethylpyridin-3-yl)acetic acid], the EC50 under setting [1] is < 0.1 µM.
Regarding `Cc1cccc(CN2CCc3cc(-c4c(C)nc(C)c([C@H](OC(C)(C)C)C(=O)O)c4N4CCC(C)(C)CC4)ccc3C2)c1F` [Compound 54, (S)-2-(tert-butoxy)-2-(4-(4,4-dimethylpiperidin-1-yl)-5-(2-(2-fluoro-3-methylbenzyl)-1,2,3,4-tetrahydroisoquinolin-6-yl)-2,6-dimethylpyridin-3-yl)acetic acid], under setting [1], the EC50 was < 0.1 µM.
Same read-out and setting: next, `Cc1nc(C)c([C@H](OC(C)(C)C)C(=O)O)c(N2CCC(C)(C)CC2)c1-c1ccc2c(c1)CCN(Cc1ccccc1Cl)C2` [Compound 55, (S)-2-(tert-butoxy)-2-(5-(2-(2-chlorobenzyl)-1,2,3,4-tetrahydroisoquinolin-6-yl)-4-(4,4-dimethylpiperidin-1-yl)-2,6-dimethylpyridin-3-yl)acetic acid]: < 0.1 µM; `Cc1nc(C)c([C@H](OC(C)(C)C)C(=O)O)c(N2CCC(C)(C)CC2)c1-c1ccc2c(c1)CCN(Cc1ccc(Cl)cc1)C2` [Compound 56, (S)-2-(tert-butoxy)-2-(5-(2-(4-chlorobenzyl)-1,2,3,4-tetrahydroisoquinolin-6-yl)-4-(4,4-dimethylpiperidin-1-yl)-2,6-dimethylpyridin-3-yl)acetic acid]: < 0.1 µM; `Cc1cc(C)c(CN2CCc3cc(-c4c(C)nc(C)c([C@H](OC(C)(C)C)C(=O)O)c4N4CCC(C)(C)CC4)ccc3C2)c(C)c1` [Compound 57, (S)-2-(tert-butoxy)-2-(4-(4,4-dimethylpiperidin-1-yl)-2,6-dimethyl-5-(2-(2,4,6-trimethylbenzyl)-1,2,3,4-tetrahydroisoquinolin-6-yl)pyridin-3-yl)acetic acid]: < 0.1 µM.
The same measure, in the same setting: next, `Cc1nc(C)c([C@H](OC(C)(C)C)C(=O)O)c(N2CCC(C)(C)CC2)c1-c1ccc2c(c1)CCN(Cc1c(F)cc(F)cc1F)C2` [Compound 58, (S)-2-(tert-butoxy)-2-(4-(4,4-dimethylpiperidin-1-yl)-2,6-dimethyl-5-(2-(2,4,6-trifluorobenzyl)-1,2,3,4-tetrahydroisoquinolin-6-yl)pyridin-3-yl)acetic acid]: < 0.1 µM.
Take `Cc1nc(C)c([C@H](OC(C)(C)C)C(=O)O)c(N2CCC(C)(C)CC2)c1-c1ccc2c(c1)CCN(Cc1ccc(C(C)C)cc1)C2` [Compound 59, (S)-2-(tert-butoxy)-2-(4-(4,4-dimethylpiperidin-1-yl)-5-(2-(4-isopropylbenzyl)-1,2,3,4-tetrahydroisoquinolin-6-yl)-2,6-dimethylpyridin-3-yl)acetic acid]: the EC50 is, setting by setting: under setting [1], < 0.1 µM; under setting [2], 0.058 µM.
For the compound `CCc1ccc(CN2CCc3cc(-c4c(C)nc(C)c([C@H](OC(C)(C)C)C(=O)O)c4N4CCC(C)(C)CC4)ccc3C2)cc1` [Compound 60, (S)-2-(tert-butoxy)-2-(4-(4,4-dimethylpiperidin-1-yl)-5-(2-(4-ethylbenzyl)-1,2,3,4-tetrahydroisoquinolin-6-yl)-2,6-dimethylpyridin-3-yl)acetic acid], the EC50 under setting [1] was < 0.1 µM.
Still for that read-out and setting: next, `Cc1nc(C)c([C@H](OC(C)(C)C)C(=O)O)c(N2CCC(C)(C)CC2)c1-c1ccc2c(c1)CCN(Cc1cccc(C#N)c1)C2` [Compound 61, (S)-2-(tert-butoxy)-2-(5-(2-(3-cyanobenzyl)-1,2,3,4-tetrahydroisoquinolin-6-yl)-4-(4,4-dimethylpiperidin-1-yl)-2,6-dimethylpyridin-3-yl)acetic acid]: < 0.1 µM.
